{"source": "paper PMC7522027", "about": "(Disease Models & Mechanisms, 2020)", "key": {"zebrafish embryos": {"test_system": "zebrafish embryos", "test": "zebrafish embryo assay (morphological developmental defects at 48 hpf)", "type": "in vivo, zebrafish (Danio rerio)", "procedure": "Zebrafish eggs obtained from family crosses of Tuebingen long fin zebrafish lines were used to assess the biological activity of all samples. The eggs were washed with fresh E3 medium and subsequently divided over 24-well plates, with ten embryos per well in 1000 µl E3 medium. Samples were added to the wells at various times as mentioned in the figures and legends. At 48 hpf, the zebrafish embryos were inspected for morphological developmental defects. Embryos displaying morphological defects were imaged using a Leica MZFLIII microscope equipped with a Leica DFC320 camera or Leica M165 FC microscope equipped with a Leica DMC5400 camera."}, "[1]": {"test_system": "BMP6-induced SMAD1/5 phosphorylation", "test": "BMP6-induced SMAD1/5 phosphorylation in HepG2 cells (immunoblot)", "type": "cell-based, human", "conditions": "HepG2, BMP6 50 ng/ml; higher concentrations", "procedure": "For BMP stimulation, the HepG2 cells (∼50% confluency) were starved on serum-free medium for 6 h. Subsequently, prior to the addition of BMP ligands, the cells were treated with compound for 30 min. Next, the cells were stimulated with BMP2 (50 ng/ml) or BMP6 (50 ng/ml) for 45 min. The cells were then washed with PBS and lysed in Laemmli sample buffer for western blot analysis.\n(§1) HepG2 or HEK 293T cells were lysed in Laemmli sample buffer. Proteins were separated by sodium dodecyl sulfate polyacrylamide gel electrophoresis (SDS-PAGE) and transferred onto […] polyvinylidene difluoride (PVDF) membrane (IPVH00010, Merck Millipore). Membranes were blocked using 5% non-fat dry milk in Tris-buffered saline with 0.1% Tween 20 (655204, Merck Millipore) and probed with the respective primary and secondary antibodies. The signal was detected using Clarity™ Western ECL Substrate (1705060, Bio-Rad) and ChemiDoc Imaging System (17001402, Bio-Rad). The antibodies used for immunoblotting were raised against the following proteins: phospho-SMAD1/5/8 ([Persson et al., 1998]; 1:1000), SMAD1 (Cell Signaling Technology, #6944; 1:1000), GAPDH (Merck Millipore, #G8795; 1:5000) and hemagglutinin (HA; Roche, #12CA5; 1:1000)."}, "BMPR1B (ALK6)": {"biological_target": "T1, BMPR1B (ALK6) (Homo sapiens, UniProt O00238)", "T1 construct": "purchased ProQinase GmbH (Freiburg, Germany); host or cells: bacteria (so in the source)", "T1 sequence (O00238 14-502)": "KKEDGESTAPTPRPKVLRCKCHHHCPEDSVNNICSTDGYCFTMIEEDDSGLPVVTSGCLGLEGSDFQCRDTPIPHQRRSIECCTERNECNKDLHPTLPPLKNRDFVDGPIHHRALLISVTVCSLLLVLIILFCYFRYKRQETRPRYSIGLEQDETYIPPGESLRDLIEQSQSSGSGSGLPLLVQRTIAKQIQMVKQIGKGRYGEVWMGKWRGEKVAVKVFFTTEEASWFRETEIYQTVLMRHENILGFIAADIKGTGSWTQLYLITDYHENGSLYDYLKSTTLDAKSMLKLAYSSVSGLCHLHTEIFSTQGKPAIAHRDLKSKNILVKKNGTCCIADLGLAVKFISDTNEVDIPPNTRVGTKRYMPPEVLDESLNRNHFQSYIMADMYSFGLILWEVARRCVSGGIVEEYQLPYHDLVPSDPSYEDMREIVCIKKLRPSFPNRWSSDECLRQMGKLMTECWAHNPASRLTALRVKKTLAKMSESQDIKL", "test": "radiometric protein kinase assay, ALK6", "type": "biochemical", "conditions": "[ATP] = 3 μM; Fig. 7G", "method": "(§3) IC50 values were calculated using Prism 5.04 for Windows (GraphPad, San Diego, CA, USA; www.graphpad.com). The mathematical model used was ‘Sigmoidal response (variable slope)’ with parameters ‘top’ fixed at 100% and ‘bottom’ at 0%. The fitting method used was a least-squares fit."}, "caALK5": {"biological_target": "T2, caALK5 (Homo sapiens, UniProt P36897, T204D)", "T2 construct": "expressed in transfected cells; host or cells: HEK 293T", "T2 sequence (P36897 34-503 T204D)": "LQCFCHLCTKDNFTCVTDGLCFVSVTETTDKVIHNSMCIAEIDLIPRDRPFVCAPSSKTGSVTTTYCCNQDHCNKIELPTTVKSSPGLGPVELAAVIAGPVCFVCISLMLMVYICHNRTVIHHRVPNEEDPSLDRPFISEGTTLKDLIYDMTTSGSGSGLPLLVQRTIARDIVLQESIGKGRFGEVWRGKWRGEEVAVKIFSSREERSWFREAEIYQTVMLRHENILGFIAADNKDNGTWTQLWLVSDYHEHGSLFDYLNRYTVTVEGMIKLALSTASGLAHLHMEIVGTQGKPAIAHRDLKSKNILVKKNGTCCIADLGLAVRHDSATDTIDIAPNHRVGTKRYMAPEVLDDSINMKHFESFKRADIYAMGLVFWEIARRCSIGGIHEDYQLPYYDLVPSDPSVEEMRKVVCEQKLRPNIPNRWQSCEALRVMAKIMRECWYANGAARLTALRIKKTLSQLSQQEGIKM", "test": "caALK5-induced SMAD phosphorylation in HEK 293T cells", "type": "cell-based", "conditions": "1, 5, 10 µM", "excerpt": "as §1\n(§2) For experiments with the caALK type I receptor constructs, HEK 293T cells were seeded in 24-well plates at ∼90% confluency and transfected with the DNA expression constructs in the presence of PEI. Thirty hours after transfection, the cells were added to serum-starved medium and treated with compounds for 16 h (overnight). Subsequently, the cells were washed with PBS and lysed in Laemmli sample buffer. […]"}, "caALK6": {"test_system": "caALK6", "test": "caALK6-induced SMAD1/5 phosphorylation in HEK 293T cells", "type": "cell-based, human", "conditions": "cercosporamide 1-10 µM, LDN193189 200 nM", "excerpt": "as §1, §2"}, "[2]": {"biological_target": "T3, anaplastic lymphoma kinase (ALK wt, GST-HIS-tag) (Homo sapiens, UniProt Q9UM73)", "T3 construct": "GST; His; purchased ProQinase GmbH (Freiburg, Germany); host or cells: bacteria (so in the source)", "T3 sequence (Q9UM73 19-1620)": "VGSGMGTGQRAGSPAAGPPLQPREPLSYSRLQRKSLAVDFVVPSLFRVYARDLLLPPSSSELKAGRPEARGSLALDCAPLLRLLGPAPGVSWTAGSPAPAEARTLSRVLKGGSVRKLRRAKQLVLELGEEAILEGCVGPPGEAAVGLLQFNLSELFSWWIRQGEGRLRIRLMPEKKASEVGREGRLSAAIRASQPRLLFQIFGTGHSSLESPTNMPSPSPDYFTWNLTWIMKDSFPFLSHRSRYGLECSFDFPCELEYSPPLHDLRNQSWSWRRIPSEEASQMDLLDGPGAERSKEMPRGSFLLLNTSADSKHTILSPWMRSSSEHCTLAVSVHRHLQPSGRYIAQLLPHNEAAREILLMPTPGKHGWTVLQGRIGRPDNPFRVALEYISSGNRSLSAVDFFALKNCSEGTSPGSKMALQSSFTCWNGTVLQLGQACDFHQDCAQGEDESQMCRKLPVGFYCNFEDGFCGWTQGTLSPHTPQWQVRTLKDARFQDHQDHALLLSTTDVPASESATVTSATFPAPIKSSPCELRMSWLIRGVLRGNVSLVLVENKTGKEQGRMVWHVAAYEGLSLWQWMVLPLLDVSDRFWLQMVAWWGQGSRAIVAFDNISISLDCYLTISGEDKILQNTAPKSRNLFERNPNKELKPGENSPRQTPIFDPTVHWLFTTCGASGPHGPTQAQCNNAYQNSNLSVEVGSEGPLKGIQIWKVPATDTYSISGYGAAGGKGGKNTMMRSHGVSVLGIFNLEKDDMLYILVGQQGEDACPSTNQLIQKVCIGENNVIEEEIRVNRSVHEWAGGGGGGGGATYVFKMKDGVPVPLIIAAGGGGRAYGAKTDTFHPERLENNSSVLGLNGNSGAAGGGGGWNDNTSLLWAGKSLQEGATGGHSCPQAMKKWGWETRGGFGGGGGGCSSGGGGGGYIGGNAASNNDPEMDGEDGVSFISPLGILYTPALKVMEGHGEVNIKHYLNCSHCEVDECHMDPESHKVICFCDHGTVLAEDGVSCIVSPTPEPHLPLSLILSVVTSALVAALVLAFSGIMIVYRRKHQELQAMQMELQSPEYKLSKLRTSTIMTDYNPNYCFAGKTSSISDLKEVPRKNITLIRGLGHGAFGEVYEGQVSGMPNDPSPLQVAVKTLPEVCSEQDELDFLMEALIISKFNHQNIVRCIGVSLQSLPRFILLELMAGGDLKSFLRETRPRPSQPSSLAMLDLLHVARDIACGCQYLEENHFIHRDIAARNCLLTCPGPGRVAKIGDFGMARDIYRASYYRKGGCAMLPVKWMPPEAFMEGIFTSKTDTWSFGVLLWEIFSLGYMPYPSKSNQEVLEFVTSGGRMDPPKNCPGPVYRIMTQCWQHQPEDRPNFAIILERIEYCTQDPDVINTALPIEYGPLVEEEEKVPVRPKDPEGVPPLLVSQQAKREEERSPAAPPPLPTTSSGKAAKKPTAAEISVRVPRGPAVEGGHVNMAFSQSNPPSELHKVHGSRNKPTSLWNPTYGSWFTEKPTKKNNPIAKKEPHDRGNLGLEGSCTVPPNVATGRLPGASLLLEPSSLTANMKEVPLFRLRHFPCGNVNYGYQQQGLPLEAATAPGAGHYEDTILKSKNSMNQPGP", "test": "radiometric protein kinase assay, anaplastic lymphoma kinase", "type": "biochemical", "conditions": "Fig. 7A", "method": "as §3"}, "ACV-R1B (ALK4)": {"biological_target": "T4, ACV-R1B (ALK4) (Homo sapiens, UniProt P36896)", "T4 construct": "purchased ProQinase GmbH (Freiburg, Germany); host or cells: bacteria (so in the source)", "T4 sequence (P36896 24-505)": "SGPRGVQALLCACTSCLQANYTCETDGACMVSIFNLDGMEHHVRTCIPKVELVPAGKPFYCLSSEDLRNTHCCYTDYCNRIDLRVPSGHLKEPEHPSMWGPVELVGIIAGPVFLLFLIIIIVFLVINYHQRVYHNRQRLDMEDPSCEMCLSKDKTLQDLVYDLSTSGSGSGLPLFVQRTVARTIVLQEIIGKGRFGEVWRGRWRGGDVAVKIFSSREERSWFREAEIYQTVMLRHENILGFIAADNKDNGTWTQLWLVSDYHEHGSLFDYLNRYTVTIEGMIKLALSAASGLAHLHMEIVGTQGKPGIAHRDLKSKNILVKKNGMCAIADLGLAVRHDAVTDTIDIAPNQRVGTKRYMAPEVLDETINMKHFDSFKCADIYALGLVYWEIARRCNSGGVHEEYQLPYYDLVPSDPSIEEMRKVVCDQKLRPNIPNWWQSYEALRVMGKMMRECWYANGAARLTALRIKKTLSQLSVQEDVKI", "test": "radiometric protein kinase assay, ALK4", "type": "biochemical", "conditions": "[ATP] = 1 μM; Fig. 7C", "method": "as §3"}}, "note": "“Also recorded” adds a separate entry of the source.", "data": [{"compound": "CC(=O)C1=C(O)C=C2Oc3c(C(N)=O)c(O)cc(O)c3[C@]2(C)C1=O", "note": "[cercosporamide, Cercosporamide]", "values": [{"measurement": "phenotype, combination treatment", "setting": "zebrafish embryos; 50 nM cercosporamide in combination with 5 µM LDN-193189, from 7 hpf onwards", "result": "partial loss of the ventral fin"}, {"measurement": "developmental defects, single treatment", "setting": "zebrafish embryos; 50 nM, from 7 hpf onwards", "result": "did not induce detectable developmental defects"}, {"measurement": "phenotype at 48 hpf", "setting": "zebrafish embryos; 100 nM, treatment from 7 hpf", "result": "abolished the effect"}, {"measurement": "phenotype at 48 hpf", "setting": "zebrafish embryos; 200 nM, treatment started at 2 hpf", "result": "severely truncated phenotype"}, {"measurement": "phenotype at 48 hpf", "setting": "zebrafish embryos; 200 nM, treatment started at 8 hpf", "result": "mild phenotype"}, {"measurement": "phenotype at 48 hpf", "setting": "zebrafish embryos; 1.5 µM, treatment from 7 hpf", "result": "severely truncated phenotype"}, {"measurement": "phenotype at 48 hpf", "setting": "zebrafish embryos; 3 µM, treatment from 7 hpf", "result": "severely truncated phenotype"}, {"measurement": "lethal concentration in zebrafish embryos", "setting": "zebrafish embryos; treatment from 7 hpf, continuous until 48 hpf", "result": "above 3 µM"}, {"measurement": "effect on BMP6-induced SMAD1/5 phosphorylation", "setting": "[1]", "result": "only minor inhibition"}, {"measurement": "IC50", "setting": "BMPR1B (ALK6)", "result": 390, "unit": "nM"}, {"measurement": "effect on caALK5-induced SMAD1/5 phosphorylation", "setting": "caALK5", "result": "not inhibited; also recorded: only weakly inhibited"}, {"measurement": "effect on caALK6-induced SMAD1/5 phosphorylation", "setting": "caALK6", "result": "inhibited SMAD1/5 phosphorylation"}, {"measurement": "IC50", "setting": "[2]", "result": 10000, "unit": "nM"}, {"measurement": "IC50", "setting": "ACV-R1B (ALK4)", "result": 150, "unit": "nM"}]}]}
